# In paper PMC11858653, “Design, Synthesis and Bioactive Evaluation of Topo I/c-MYC Dual Inhibitors to Inhibit Oral Cancer via Regulating the PI3K/AKT/NF-κB Signaling Pathway” (Molecules, 2025):
# “Also recorded” adds a separate entry of the source.
# Tests used:
# ACHN = experiment: MTT antiproliferative assay, ACHN; format: cell-based, human; conditions: Homo sapiens, ACHN, 48 h, mean ± SD
# NCI-H460 = experiment: MTT antiproliferative assay, NCI-H460; format: cell-based, human; conditions: Homo sapiens, NCI-H460, 48 h, mean ± SD
# c-MYC protein = experiment: Western blot of c-MYC protein in Cal27 cells; format: cell-based, human; conditions: Cal27, 24 h
# Protocol: (§1) After Cal27 cells had been treated with the desired concentration of each drug for 24 h, the cells were collected and the total protein was extracted. The cells were then separated on a gel of appropriate concentration and transferred to a PVDF membrane. After blocking with milk, the membrane was incubated with primary antibody at 4 °C overnight. Subsequently, the membrane was incubated with horseradish peroxidase-coupled secondary antibody for 2 h. Finally, the protein bands were used to detect the immunoreactive signal using an enhanced chemiluminescence kit.
# SV-HUC-1 = experiment: MTT assay, normal cell line SV-HUC-1; format: cell-based; conditions: SV-HUC1, 48 h, mean ± SD
# Protocol: Having evaluated their Topo I inhibitory activity, the antiproliferative activity of the target compounds against some common human cancer cell lines (NCI-H460, A549, ACHN, Cal27 and MGC-803) and one normal cell line (SV-HUC-1) was tested via an MTT assay. TPT, the first Topo I inhibitor approved in clinics, and cisplatin (CDDP), a commonly selected anticancer drug for treating head and neck malignancies, were used as the positive controls.
# Human oral cancer Cal27 cells were seeded in 96-well plates and incubated overnight in 180 μL of medium containing 10% Fetal Bovine Serum (Gibco, San Francisco, CA, USA). […] Then, 10 μL of 5 mg/mL MTT solution was added to each well and incubated at 37 °C for 4 h. After 4 h of incubation at 37 °C, the MTT-containing medium was removed and DMSO was added to each well and the absorbance at 570 nm and 630 nm was measured using a microplate reader (CYTATION 3, Burton, Westwood, NJ, USA). Survival/% = (mean OD of experimental group/mean OD of control group) × 100%. Each test was repeated at least three times.
# Cal27 cells [1] = experiment: MTT cell survival with autophagy inhibitor CQ; format: cell-based, human; conditions: Cal27, 20 μM CQ and different concentrations of 7be
# Protocol: Meanwhile, to further confirm that compound 7be could induce autophagic death in Cal27 cells, we used a classical autophagy inhibitor, chloroquine (CQ), to evaluate the role of autophagy in compound 7be-mix-induced cell death.
# Human oral cancer Cal27 cells were seeded in 96-well plates and incubated overnight in 180 μL of medium containing 10% Fetal Bovine Serum (Gibco, San Francisco, CA, USA). On the following day, compounds at final concentrations of 2.5, 5, 10 and 20 μM were added to each well and incubated for 48 h. Then, 10 μL of 5 mg/mL MTT solution was added to each well and incubated at 37 °C for 4 h. After 4 h of incubation at 37 °C, the MTT-containing medium was removed and DMSO was added to each well and the absorbance at 570 nm and 630 nm was measured using a microplate reader (CYTATION 3, Burton, Westwood, NJ, USA). Survival/% = (mean OD of experimental group/mean OD of control group) × 100%. Each test was repeated at least three times.
# [2] = tested on: Bax, Bcl-2, Cleaved PARP1/PARP1 in Cal27 cells; experiment: Western blot of apoptosis-related proteins; format: cell-based, human
# Protocol: as §1
# [3] = In vivo biological safety evaluation; parameters: species or system BALB/c nude mice
# Protocol: Nude mouse organ and tumor tissues fixed with neutral formalin solution were paraffin-embedded according to the conventional processing method. Sections were cut to a thickness of approximately 5 μm, placed on glass slides and dewaxed in an oven at 60 °C, stained for H&E and immunohistochemistry and finally visualized with the Cytation 5 imaging system.
# For this assay, 130 SPF-grade BALB/c mice (female, 4–6 weeks old, 18–20 g) were obtained from Chang Zhou Cavens Laboratory Animal Ltd. (Changzhou, China). The in vivo activity experiments were commissioned by Nanjing OG Pharmaceuticals, Co., Ltd. (Nanjing, China) All mice were housed in plastic cages, fed, and watered under standard conditions and air filtration (22 ± 2 °C; 12 h light/dark cycles). Under aseptic conditions, human oral cancer Cal27 cells were inoculated subcutaneously in the right axilla of BALB/c nude mice. When the tumors had grown to about 85 mm^3, 24 […] mice with good growth status and good homogeneity of tumor size were selected and randomly divided into the following four groups of six mice each: (1) the model group; (2) the low-dose group; (3) the high-dose group; and (4) the positive drug group. The drug dose in the low-dose group was 10 mg/kg, which was injected intraperitoneally once every other day, for the duration of 21 days of administration; the drug dose in the high-dose group was 20 mg/kg, which was injected intraperitoneally once every other day, for the duration of 21 days of administration; and the drug dose in the cisplatin group was 2 mg/kg, which was injected intraperitoneally once every other day, for the duration of 21 days of administration. Normal tissues of the heart, liver, spleen, lung and kidney and half of the tumor tissues were fixed with 4% formalin solution and embedded in paraffin for histological analysis; the other half of the tumor tissues were preserved in liquid nitrogen, and the supernatant was extracted after milling the tissues and detected by Western blot.
# A549 = experiment: MTT antiproliferative assay, A549; format: cell-based, human; conditions: Homo sapiens, A549, 48 h, mean ± SD
# MGC-803 = experiment: MTT antiproliferative assay, MGC-803; format: cell-based, human; conditions: Homo sapiens, MGC-803, 48 h, mean ± SD
# Cal27 cells [4] = experiment: Cell cycle analysis by flow cytometry; format: cell-based, human; conditions: Cal27, 4 μM, 24 h
# Protocol: Cal27 cells were treated with compound 7be for 24 h. Next, Cal27 cells were collected and suspended in ice ethanol at 4 °C for at least 24 h. Subsequently, Cal27 cells were incubated in RNase A and PI staining solution at 37 °C, protected from light, for 0.5 h. Finally, cells were detected by flow cytometry.
# PI3K/AKT/NF-κB pathway = experiment: Western blot of PI3K/AKT/NF-κB signaling pathway in Cal27 cells; format: cell-based, human; conditions: Cal27, 24 h
# Protocol: as §1
smiles,measurement,setting,value
"Cc1cc(C)c2c(n1)S(=O)(=O)c1c-2nc(NCCN2CCCCC2)c2ccccc12 [7be, 7,9-Dimethyl-5-((2-(piperidin-1-yl)ethyl)amino) pyrido[3′,2′:4,5]thieno[3,2-c]isoquinoline 11,11-dioxide]",IC50,ACHN,3.25 ± 1.59 µM
same,IC50,NCI-H460,2920 ± 560 nM
same,concentration needed to significantly downregulate the level of c-MYC protein,c-MYC protein,2 µM
same,IC50,SV-HUC-1,5.18 ± 1.77 µM
same,cell survival rate of combined treatment with 20 μM CQ,Cal27 cells [1],higher than that of the group treated with compound 7be alone
same,Cleaved PARP1/PARP1,[2],up-regulated
same,anti-apoptotic protein Bcl-2,[2],down-regulated
same,pro-apoptotic protein Bax,[2],up-regulated
same,body weight of mice during treatment,"[3]; 10 or 20 mg/kg i.p., 21 days",no significant decrease in body weight; also recorded: no considerable weight loss
same,organ weight of mice,[3]; end of treatment,no significant difference
same,H&E staining of major organs,"[3]; heart, liver, spleen, lung, kidney","no lesions, degenerations or histopathological abnormalities"
same,IC50,A549,3.32 ± 1.9 µM
same,IC50,MGC-803,1690 ± 240 nM
same,cells in S,Cal27 cells [4],54.06%
same,expression and phosphorylation levels of NF-κB,PI3K/AKT/NF-κB pathway,decrease
same,expression levels of PI3K,PI3K/AKT/NF-κB pathway,slightly increased
same,phosphorylation levels of PI3K and AKT,PI3K/AKT/NF-κB pathway,significantly repressed
